Where two headings read alike, the source gives them in different places. Values belong to the compound of their own block, whether it stands above or below them.
Experiments:
[1] = system: mutant (C67V) PLK1 RPE cells; test: Cell viability assay, PLK1 C67V mutant RPE cells; assay type: cell-based; settings: FIG. 6-8
Method: (§1) Retinal Pigment Epithelial (RPE) cells were maintained in 1:1 DMEM/Hams F-12 (Invitrogen™, Carlsebad, Calif.; Corning® Cellgro, Manassas, Va.), and supplemented with 10% FBS or Corning® Nu-Serum™ (BD™ Biosciences, Franklin Lakes, N.J.) and 1% penicillin/streptomycin (Invitrogen™) in a humidified incubator and 5% C02 at 37° C.
(§2) Exponentially growing cells were plated in 96-well dishes. Dose response curves were used to treat cells for 72 hours with inhibitors. Following the three-day treatment, cell viability was measured using the MTT (3-(4,5-dimethylthiazol-2-yl)-2,5-diphenyltetrazolium bromide) colorimetric assay. Cells were incubated for 3 hours with MTT allowing viable cells to metabolize the tetrazolium dye to a purple colored solution.

PC3 cells = test: Cell cycle analysis and BrdU pulse labeling in PC3 cells, FIG. 9-11; assay type: cell-based
Method: Analysis of Cell Cycle Progression by FACS
Serum-Starved Synchronization
Cells were synchronized in G1 by serum starvation. Briefly, exponentially growing cells were plated overnight. Media (DMEM, 10% FBS, 1% Pen. Strep.) was then removed and replaced with media containing no FBS. Cells were starved for 72 hours then treated for 24 hours with inhibitor. Following treatment, cells were harvested and processed for endpoint experimental analysis.
Ethanol fixative was removed by centrifugation and the cells were washed with 1 mL ice-cold PBS/1% BSA. Cells were denatured by resuspending in 0.2 mg/mL pepsin in 2N HCl and incubated in 37° C. water bath for 15 minutes. Hydrolysis was then terminated by adding 1 M Invitrogen™ Novex® Tris-Glycine. Cells were then washed with PBS/1% BSA then the primary anti-BrdU antibody (1:100 dilution in TBFP; 0.5% Tween-20, 1% BSA, 1% FBS, PBS) was added and cells were incubated for 25 minutes in the dark, at room temperature. […] Cells were washed once more with PBS/1% BSA and re-suspended in DAPI for 30 minutes before being analyzed by flow cytometry.
The PLK1 PBD-inhibitors were analyzed further by cell cycle analysis in PC3 cells (FIG. 9). […] To quantify the percentage of cells actively proliferating (synthesizing their DNA) or arrested Bromodeoxyuridine (BrdU) pulse labeling was carried out and analyzed by flow cytometry.

PLK1 PBD (367-603) = molecular target: T1, PLK1 PBD (367-603) (Homo sapiens, UniProt P53350); test: Fluorescence polarization assay, PLK1 PBD; assay type: binding
T1 construct: PLK1 PBD (367-603); purchased BPS Biosciences Inc. (San Diego, Calif.)
Method: (§3) Fluorescence Polarization Assay
(§4) Materials were dissolved in DMSO (10 mM) and diluted from 10 nM to 600 μM (maximum of 6% DMSO tolerance in the assay). […] Incubation was carried out at room temperature for 45 minutes. Fluorescence was measured using a DTX 880 plate reader and Multimode Analysis software (Beckman Coulter, Brea, Calif.). […] Each data point was performed in triplicate for every experiment, and experiments were performed at least three times. An IC50 value for each compound was calculated from linear regression analysis of the plots.

PLK3 PBD (335-646) = molecular target: T2, PLK3 PBD (335-646) (Homo sapiens, UniProt Q9H4B4); test: Fluorescence polarization assay, PLK3 PBD; settings: PLK3 PBD binding
T2 construct: PLK3 PBD (335-646); purchased BPS Biosciences Inc. (San Diego, Calif.)
T2 sequence (Q9H4B4 335-646): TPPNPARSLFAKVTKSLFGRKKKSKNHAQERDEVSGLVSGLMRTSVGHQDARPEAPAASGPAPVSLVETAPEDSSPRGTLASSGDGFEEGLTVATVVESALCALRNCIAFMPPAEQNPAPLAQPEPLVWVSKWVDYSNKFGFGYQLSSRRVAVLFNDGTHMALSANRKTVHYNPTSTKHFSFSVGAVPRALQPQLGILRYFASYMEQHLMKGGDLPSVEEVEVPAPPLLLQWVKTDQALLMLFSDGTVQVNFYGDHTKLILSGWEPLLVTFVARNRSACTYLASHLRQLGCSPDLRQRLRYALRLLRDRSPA
Method: as §3, §4

[2] = system: WT Retinal Pigment Epithelial (RPE) cells; test: Cell viability assay, WT RPE cells; assay type: cell-based; settings: FIG. 7, FIG. 8
Method: as §1, §2

[3] = system: HCT-116 (p53−/−) colon cancer cells; test: Cell viability assay (MTT), HCT116 p53-/-; assay type: cell-based
Method: HCT-116 (p53+/+ and −/−) colon cancer cells were maintained DMEM (Invitrogen™, Carlsebad, Calif.) supplemented with 10% FBS or Nu-serum (BD™ Biosciences, Franklin Lakes, N.J.) and 1% penicillin/streptomycin (Invitrogen™) in a humidified incubator and 5% C02 at 37° C.
as §2, with “solution. Absorbance measurements (595 nm) were quantified using a DTX 880 plate reader and IC50 values were generated for FLIPs.” for “solution.”

[4] = system: KRAS mutant lung cancer (A-549) cells; test: Cell viability assay (MTT), A-549; assay type: cell-based
Method: A-549 lung cancer cells were maintained in Hams F-12 1× with glutamine (Corning® Cellgro, Manassas, Va.), and supplemented with 10% FBS or Corning® Nu-Serum™ (BD™ Biosciences, Franklin Lakes, N.J.) and 1% penicillin/streptomycin (Invitrogen™) in a humidified incubator and 5% C02 at 37° C.
as §2, with “solution. Absorbance measurements (595 nm) were quantified using a DTX 880 plate reader and IC50 values were generated for FLIPs.” for “solution.”

[5] = system: HeLa cervical cancer cells; test: Cell viability assay (MTT), HeLa; assay type: cell-based; settings: Homo sapiens, HeLa, 72 h, read-out: HeLa
Method: HeLa cervical cancer cells were obtained from ATCC (Manassas, Va.). […] Cells were maintained in DMEM (Invitrogen™, Carlsebad, Calif.) supplemented with 10% FBS or Corning© Nu-Serum™ (BD™ Biosciences, Franklin Lakes, N.J.) and 1% penicillin/streptomycin (Invitrogen™) in a humidified incubator and 5% CO2 at 37° C.
as §2

[6] = Cell cycle analysis and caspase apoptosis assay; assay type: cell-based
Excerpt: Disclosed small molecule inhibitors can also encourage apoptosis.

[7] = system: PTEN deficient prostate cancer (PC3) cells; test: Cell viability assay (MTT), PC3; assay type: cell-based; settings: read-out: PCC-3
Method: PC3 prostate cancer cells were maintained in DMEM (Invitrogen™, Carlsebad, Calif.) supplemented with 10% FBS or Corning® Nu-Serum™ (BD™ Biosciences, Franklin Lakes, N.J.) and 1% penicillin/streptomycin (Invitrogen™) in a humidified incubator and 5% C02 at 37° C.
as §2

full length PLK1 = molecular target: T3, full length PLK1 (Homo sapiens, UniProt P53350); test: PLK1 kinase inhibition assay (CycLex ELISA); assay type: biochemical; settings: 7.5 μM ATP, read-out: PLK1 Kinase Inhibitory Act. IC50
T3 construct: This ELISA assay measures the catalytic activity of full length PLK1 for a defined substrate
Excerpt: PLK1 Kinase Inhibition Assay
The CycLex® Polo-like Kinase 1 Assay/Inhibitor Screening Kit was used to measure catalytic inhibition (MBL Life Science, Nagano, Japan). This ELISA assay measures the catalytic activity of full length PLK1 for a defined substrate, which is detected by an anti-phospho-threonine antibody (PPT-07) and peroxidase coupled secondary antibody. […] Peroxidase catalyzes the conversion of the colorless solution to yellow, which was quantified using a DTX 880 plate reader. Absorbance measurements (450 nm) were plotted to calculate activity in each sample, and % inhibition was calculated in the wells relative to activity in the absence of inhibitor.

[8] = PLK1 PBD binding, fluorescence polarization, read-out: PLK1 IC50
[9] = Table 1, fluorescence polarization, read-out: PLK1 PBD IC50

T1 sequence (P53350 367-603): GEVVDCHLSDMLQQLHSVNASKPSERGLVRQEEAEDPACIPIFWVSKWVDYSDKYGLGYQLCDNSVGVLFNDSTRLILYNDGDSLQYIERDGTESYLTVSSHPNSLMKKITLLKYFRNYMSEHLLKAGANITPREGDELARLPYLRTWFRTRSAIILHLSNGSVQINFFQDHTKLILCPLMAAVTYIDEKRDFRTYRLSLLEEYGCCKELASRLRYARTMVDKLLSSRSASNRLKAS
T3 sequence (P53350 whole entry): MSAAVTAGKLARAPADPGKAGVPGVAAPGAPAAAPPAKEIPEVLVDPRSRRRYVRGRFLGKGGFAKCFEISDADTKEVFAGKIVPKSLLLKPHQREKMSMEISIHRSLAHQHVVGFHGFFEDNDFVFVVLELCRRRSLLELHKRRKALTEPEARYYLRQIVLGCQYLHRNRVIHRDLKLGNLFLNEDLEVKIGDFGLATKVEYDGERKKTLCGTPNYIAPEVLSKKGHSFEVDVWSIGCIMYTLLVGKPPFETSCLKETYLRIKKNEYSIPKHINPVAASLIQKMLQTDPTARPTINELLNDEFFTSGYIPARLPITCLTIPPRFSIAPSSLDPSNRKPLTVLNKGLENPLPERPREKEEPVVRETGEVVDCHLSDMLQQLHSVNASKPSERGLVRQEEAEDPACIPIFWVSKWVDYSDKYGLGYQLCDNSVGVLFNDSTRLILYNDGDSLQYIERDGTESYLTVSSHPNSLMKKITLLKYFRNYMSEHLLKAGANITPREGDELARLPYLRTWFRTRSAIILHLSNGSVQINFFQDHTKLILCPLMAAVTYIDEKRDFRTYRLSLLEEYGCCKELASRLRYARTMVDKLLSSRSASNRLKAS

IC50 (PLK1 PBD (367-603); [9]): > 600 µM
Structure (SMILES): CCCCCCc1ccc(C(=O)Nc2ncccc2C(=O)O)cc1 [SCCP ID No. 5904]

IC50 (PLK1 PBD (367-603); [8]): > 600 µM
binding to the PLK1 PBD (in words) (PLK1 PBD (367-603); fluorescence polarization): No binding was observed
Structure (SMILES): CCCCCCc1ccc(C(=O)Nc2cccc(S(N)(=O)=O)c2)cc1 [SCCP ID No. 5908]

IC50 (PLK1 PBD (367-603); [9]): 105 µM
Structure (SMILES): CCCCCCCCc1ccc(C(=O)NCc2ccccc2C(=O)O)cc1 [SCCP ID No. 5913]

IC50 (PLK1 PBD (367-603); [8]): > 600 µM
binding to the PLK1 PBD (in words) (PLK1 PBD (367-603); fluorescence polarization): no binding to PLK1
IC50 (PLK3 PBD (335-646)): 24.5 µM
Structure (SMILES): CCCCCCc1ccc(C(=O)Nc2ccc(C)cc2C(=O)O)cc1 [SCCP ID No. 5924]

IC50 ([3]; 72 hours): 10 ± 2.4 µM
IC50 (PLK1 PBD (367-603); [8]): 11.1 ± 1.1 µM
IC50 ([7]; MTT, 72 hours): 11.6 ± 1.2 µM
IC50 ([4]; 72 hours): 2.9 ± 0.5 µM
IC50 (full length PLK1): 48.9 µM
Structure (SMILES): CCCCCCCCc1ccc(C(=O)Nc2cccc(F)c2C(=O)O)cc1 [SCCP ID No. 5932]
sensitivity of cells containing wild type PLK1 (in words) [2]: sensitive
sensitivity of cells containing mutant (C67V) PLK1 (in words) [1]: sensitive

Continued, compound first:

Structure (SMILES): CC[C@@H]1C(=O)N(C)c2cnc(Nc3ccc(C(=O)NC4CCN(C)CC4)cc3OC)nc2N1C1CCCC1 [BI-2536, reference compound]
sensitivity of cells containing mutant (C67V) PLK1 (in words) [1]: resistant
cells accumulate in G2/M (PC3 cells; concentration not given): ~80%

Structure (SMILES): CCCCc1ccc(C(=O)Nc2ccc(C(=O)O)cc2)cc1 [SCCP ID No. 5880]
IC50 (PLK1 PBD (367-603); [8]): > 600 µM
binding to the PLK1 PBD (in words) (PLK1 PBD (367-603); fluorescence polarization): did not bind

Structure (SMILES): CCCCCCc1ccc(C(=O)Nc2ccccc2C(=O)O)cc1 [SCCP ID No. 5881]
binding to the PLK1 PBD (in words) (PLK1 PBD (367-603); fluorescence polarization): low micromolar activity

Structure (SMILES): CCCCCCc1ccc(C(=O)Nc2cccc(C(=O)O)c2)cc1 [SCCP ID No. 5903]
IC50 (PLK1 PBD (367-603); [8]): 130 ± 3.6 µM
Selectivity Fold Index (PLK1 PBD (367-603); fold selectivity for PLK1 versus PLK3 PBD): 1.6
IC50 (PLK3 PBD (335-646)): 43.6 ± 1.69 µM

Structure (SMILES): CCCCCc1ccc(C(=O)Nc2ccccc2C(=O)O)cc1 [SCCP ID No. 5905]
IC50 (PLK1 PBD (367-603); [8]): 224 ± 4.88 µM

Structure (SMILES): CCCCCCCCc1ccc(C(=O)Nc2ccccc2C(=O)O)cc1 [SCCP ID No. 5912]
sensitivity of cells containing wild type PLK1 (in words) [2]: sensitive
IC50 ([3]; Homo sapiens, HCT-116, 72 hours): 8 ± 1.7 µM
PLK1 versus PLK3 specificity (in words) (PLK1 PBD (367-603); PBD binding): relatively equipotent for PLK1 and PLK3 PBD binding
sensitivity of cells containing mutant (C67V) PLK1 (in words) [1]: sensitive
cell cycle phenotype (in words) (PC3 cells; 15 μM): S phase delay
IC50 ([4]; Homo sapiens, A549, 72 hours): 2.8 ± 0.1 µM

Structure (SMILES): CCCCCCCCc1ccc(C(=O)Nc2ccccc2C(=O)OCC)cc1 [SCCP ID No. 5914]
IC50 [5]: > 100 µM
IC50 (PLK1 PBD (367-603); [8]): > 600 µM
levels of apoptosis (in words) [6]: virtually none
IC50 ([7]; Homo sapiens, PC-3, 72 h): > 100 µM
